In patent US20100152047A1, “Piperazine Compounds Whith a Herbicidal Action” (BASF SE, priority 2007, published 2010):

Tests used:
Format in all cases: in vivo
[1] = tested on: AMARE (Amaranthus retoflexus, redroot pigweed); test: greenhouse herbicidal test, post-emergence, AMARE; details: post-emergence method, application rate 0.5 kg/ha, scale from 0 to 100
Excerpt: (§1) The culture containers used were plastic flowerpots containing loamy sand with approximately 3.0% of humus as the substrate. The seeds of the test plants were sown separately for each species.
(§2) For the post-emergence treatment, the test plants were first grown to a height of 3 to 15 cm, depending on the plant habit, and only then treated with the active ingredients which had been suspended or emulsified in water. For this purpose, the test plants were either sown directly and grown in the same containers, or they were first grown separately as seedlings and transplanted into the test containers a few days prior to treatment.
(§3) Depending on the species, the plants were kept at 10-25° C. or 20-35° C. The test period extended over 2 to 4 weeks. During this time, the plants were tended, and their response to the individual treatments was evaluated.
(§4) Evaluation was carried out using a scale from 0 to 100. 100 means no emergence of the plants, or complete destruction of at least the aerial moieties, and 0 means no damage, or normal course of growth. A good herbicidal activity is given at values of at least 70 and a very good herbicidal activity is given at values of at least 85.
(§5) The plants used in the greenhouse experiments belonged to the following species: […]

[2] = tested on: SETVI (Setaria viridis, green foxtail); test: greenhouse herbicidal test, post-emergence, SETVI; details: post-emergence method, application rate 0.5 kg/ha, scale from 0 to 100
Excerpt: as §1, §2, §3, §4, §5

[3] = tested on: CHEAL (Chenopodium album, common lambsquarters); test: greenhouse herbicidal test, post-emergence, CHEAL; details: post-emergence method, application rate 0.5 kg/ha, scale from 0 to 100
Excerpt: as §1, §2, §3, §4, §5

[4] = tested on: LOLMU (Lolium multiflorum, Italian ryegrass); test: greenhouse herbicidal test, post-emergence, LOLMU; details: post-emergence method, application rate 0.5 kg/ha, scale from 0 to 100
Excerpt: as §1, §2, §3, §4, §5

[5] = tested on: CHEAL (Chenopodium album, common lambsquarters); test: greenhouse herbicidal test, pre-emergence, CHEAL; details: pre-emergence method, application rate 0.5 kg/ha, scale from 0 to 100
Excerpt: as §1
(§6) For the pre-emergence treatment, the active ingredients, which had been suspended or emulsified in water, were applied directly after sowing by means of finely distributing nozzles. The containers were irrigated gently to promote germination and growth and subsequently covered with transparent plastic hoods until the plants had rooted. This cover caused uniform germination of the test plants, unless this has been impaired by the active ingredients.
as §3, §4, §5

[6] = tested on: SETVI (Setaria viridis, green foxtail); test: greenhouse herbicidal test, pre-emergence, SETVI; details: pre-emergence method, application rate 0.5 kg/ha, scale from 0 to 100
Excerpt: as §1, §6, §3, §4, §5

[7] = tested on: APESV (Apera spica-venti, windgrass); test: greenhouse herbicidal test, post-emergence, APESV; details: post-emergence method, application rate 0.5 kg/ha, scale from 0 to 100
Excerpt: as §1, §2, §3, §4, §5

[8] = tested on: GALAP (Galium aparine, catchweed bedstraw); test: greenhouse herbicidal test, post-emergence, GALAP; details: post-emergence method, application rate 0.5 kg/ha, scale from 0 to 100
Excerpt: as §1, §2, §3, §4, §5

Row | Structure (SMILES) | herbicidal activity against AMARE [1] | herbicidal activity against SETVI [2] | herbicidal activity against CHEAL [3] | also measured
1 | CN1C(=O)C(C)(Cc2ccccc2)N(C)C(=O)C1=Cc1ccccc1[N+](=O)[O-] (mixture of isomers) [Example 26] | good to very good | good to very good | – | –
2 | CN1C(=O)C(C)(Cc2ccccc2)N(C)C(=O)C1=Cc1ccccc1C#N (racemic) [Example 7] | good to very good | good to very good | good to very good | –
3 | CN1C(=O)C(C)(Cc2ccccc2)N(C)C(=O)C1=Cc1ccccc1Br (racemic) [Example 10] | – | good to very good | – | herbicidal activity against LOLMU [4]: good (A good herbicidal activity is given at values of at least 70)
4 | CN1C(=O)C(C)(Cc2ccccc2)N(C)C(=O)C1=Cc1c(Cl)cccc1Br (racemic) [Example 11] | good to very good | good to very good | good to very good | –
5 | CN1C(=O)C(C)(Cc2ccccc2)N(C)C(=O)C1=Cc1c(F)cccc1C#N (racemic) [Example 12] | good to very good | good to very good | good to very good | –
6 | CN1C(=O)C(C)(Cc2ccccc2)N(C)C(=O)C1=Cc1c(Cl)cccc1C#N (racemic) [Example 13] | good to very good | good to very good | good to very good | –
7 | COc1cccc(C#N)c1C=C1C(=O)N(C)C(C)(Cc2ccccc2)C(=O)N1C (racemic) [Example 14] | – | good to very good | good to very good | –
8 | Cc1cccc(C#N)c1C=C1C(=O)N(C)C(C)(Cc2ccccc2)C(=O)N1C (racemic) [Example 16] | good to very good | good to very good | good to very good | –
9 | CN1C(=O)C(C)(Cc2ccccc2)N(C)C(=O)C1=Cc1c(C#N)ccc(F)c1F (racemic) [Example 18] | good to very good | good to very good | good to very good | –
10 | CC(C)C1(Cc2ccccc2)C(=O)N(C)C(=Cc2ccccc2C#N)C(=O)N1C (racemic) [Example 24] | good to very good | – | – | –
11 | CN1C(=O)C(CO)(Cc2ccccc2)N(C)C(=O)C1=Cc1ccccc1C#N (racemic) [Example 25] | – | good to very good | good to very good | herbicidal activity against CHEAL [5]: good (A good herbicidal activity is given at values of at least 70); herbicidal activity against SETVI [6]: good (A good herbicidal activity is given at values of at least 70)
12 | CCc1cccc(C#N)c1C=C1C(=O)N(C)C(C)(Cc2ccccc2)C(=O)N1C (racemic) [Example 29] | – | good to very good | – | –
13 | CN1C(=O)C(C)(Cc2ccccc2)NC(=O)C1=Cc1ccccc1C#N (racemic) [Example 39] | good to very good | good to very good | good to very good | –
14 | COc1cccc(Br)c1C=C1C(=O)N(C)C(C)(Cc2ccccc2)C(=O)N1C (racemic) [Example 43] | good to very good | – | – | herbicidal activity against APESV [7]: good (A good herbicidal activity is given at values of at least 70)
15 | CN1C(=O)C(C)(Cc2ccccc2)NC(=O)C1=Cc1ccccc1[N+](=O)[O-] (racemic) [Example 44] | good to very good | good to very good | – | –
16 | CCN1C(=O)C(=Cc2ccccc2[N+](=O)[O-])N(C)C(=O)C1(C)Cc1ccccc1 (racemic) [Example 47] | good to very good | good to very good | – | –
17 | Cc1cccc([N+](=O)[O-])c1C=C1C(=O)N(C)C(C)(Cc2ccccc2)C(=O)N1C (racemic) [Example 56] | good to very good | good to very good | – | –
18 | CN1C(=O)C(C)(Cc2ccc(Cl)cc2)N(C)C(=O)C1=Cc1ccccc1C#N (racemic) [Example 137] | – | – | – | herbicidal activity against GALAP [8]: good (A good herbicidal activity is given at values of at least 70)
19 | CN1C(=O)C(C)(Cc2ccc(F)cc2)N(C)C(=O)C1=Cc1ccccc1C#N (racemic) [Example 138] | good to very good | good to very good | – | –
20 | CCC1(Cc2ccccc2)C(=O)N(C)C(=Cc2ccccc2C#N)C(=O)N1C (stereo not shown) [Example 3, 2-(5-Benzyl-5-ethyl-1,4-dimethyl-3,6-dioxopiperazin-2-ylidenemethyl)-benzonitrile] | good to very good | – | good to very good | –
